According to paper PMC4144908, “Structural Insights of the ssDNA Binding Site in the Multifunctional Endonuclease AtBFN2 from Arabidopsis thaliana” (PLoS ONE, 2014):

What was measured:
AtBFN2 [1] = target: T1, AtBFN2 (Arabidopsis thaliana, UniProt Q9C9G4); parameters: gene ENDO2; details: active site, tri-zinc cluster; crystals grown with 0.2 M Na2HPO4, 0.1 M Hepes pH 7.5
T1 sequence (Q9C9G4 28-290): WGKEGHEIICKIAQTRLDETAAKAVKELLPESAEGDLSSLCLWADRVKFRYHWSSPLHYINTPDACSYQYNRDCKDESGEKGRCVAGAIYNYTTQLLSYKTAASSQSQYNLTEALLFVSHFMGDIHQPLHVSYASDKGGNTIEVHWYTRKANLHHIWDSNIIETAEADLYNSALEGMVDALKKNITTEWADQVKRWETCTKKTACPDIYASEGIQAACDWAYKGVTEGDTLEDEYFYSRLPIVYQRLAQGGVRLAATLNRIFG

AtBFN2 [2] = target: T1, AtBFN2; experiment: acid-soluble ssDNA release, A260; format: biochemical; parameters: gene ENDO2; ENDO2 cDNA with C-terminal 6xHis tag, overexpressed in transgenic Arabidopsis seedlings; three Zn ions; details: heat-denatured ssDNA substrate; 100 mM Tris pH 7, 37 °C, 10 min; 1 mM Na3VO4

| Structure (SMILES) | X-ray crystal structure, 2.0 Å (AtBFN2 [1]) | % inhibition at 1 mM (AtBFN2 [2]) |
| --- | --- | --- |
| O=P(O)(O)O [phosphate] | have a phosphate anion displacing all coordinating waters, except Wat3 (Fig. 2D) |  |
| [O]=[V]([OH])([OH])[OH] [vanadate] |  | 80% |
